Results taken from patent US20250195521A1 (Revolution Medicines, Inc., priority 2020, published 2025).
pEC50, pIC50: −log10 of the molar value.

How the values were obtained:
[1] = tested on: Capan-1 cells (K-Ras G12V); test: CellTiter-Glo cell viability, Capan-1; assay type: cell-based, human; details: Homo sapiens, CAPAN-1, 120 h, K-Ras G12V, 5-day treatment; read-out: Capan-1 Cell Viability IC50
How it was run: (§1)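 Viability read by luminescence on day 5 after direct compound addition to cells, following ~30 min room-temperature equilibration. Values expressed as percent of mean DMSO signal, curves fitted with a four-parameter logistic model.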

[2] = biological target: KRAS G12C (Homo sapiens (Human), UniProt P01116+P62937, G12C); test: Ras-Raf disruption/FRET/MOA assay (BRAF RBD, Cyclophilin A); assay type: biochemical; details: read-out: KRAS G12C FRET IC50
KRAS G12C, sequence (P01116-2 other isoform, or with tags, fused parts or gaps G12C): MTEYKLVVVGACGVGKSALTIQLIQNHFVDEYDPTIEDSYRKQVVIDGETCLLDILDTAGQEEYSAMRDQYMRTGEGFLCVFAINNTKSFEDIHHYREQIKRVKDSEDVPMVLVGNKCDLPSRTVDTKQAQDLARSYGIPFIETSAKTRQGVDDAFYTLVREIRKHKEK
KRAS G12C, sequence (P62937 whole entry): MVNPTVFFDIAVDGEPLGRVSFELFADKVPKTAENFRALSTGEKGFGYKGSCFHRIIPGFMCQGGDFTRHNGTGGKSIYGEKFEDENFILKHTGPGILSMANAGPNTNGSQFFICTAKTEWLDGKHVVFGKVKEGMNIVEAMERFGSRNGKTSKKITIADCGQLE
How it was run: (§2)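 His6-K-Ras-GMPPNP (12.5 nM), GST-BRAF RBD (50 nM) and tagless Cyclophilin A (25 μM) were combined in 25 mM HEPES pH 7.3 with 100 mM NaCl, 5 mM MgCl2, 0.1% BSA and 0.002% Tween20, with compound as a 10-point 3-fold series from 30 μM final, then incubated 3 h at 25° C.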

[3] = biological target: KRAS G12D (Homo sapiens (Human), UniProt P01116+P62937, G12D); test: as above; assay type: biochemical; details: read-out: KRAS G12D FRET IC50
KRAS G12D, sequence (P01116 other isoform, or with tags, fused parts or gaps G12D): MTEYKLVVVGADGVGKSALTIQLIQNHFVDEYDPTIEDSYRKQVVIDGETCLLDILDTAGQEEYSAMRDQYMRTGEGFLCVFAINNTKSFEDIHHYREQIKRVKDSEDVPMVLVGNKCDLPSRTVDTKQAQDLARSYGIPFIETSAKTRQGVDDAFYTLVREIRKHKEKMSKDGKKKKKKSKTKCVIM
KRAS G12D, sequence (P62937 whole entry): as the sequence (P62937 whole entry) above
How it was run: as §2

[4] = biological target: KRAS G12S (Homo sapiens (Human), UniProt P01116+P62937, G12S); test: as above; assay type: biochemical; details: read-out: KRAS G12S FRET IC50
KRAS G12S, sequence (P01116 other isoform, or with tags, fused parts or gaps G12S): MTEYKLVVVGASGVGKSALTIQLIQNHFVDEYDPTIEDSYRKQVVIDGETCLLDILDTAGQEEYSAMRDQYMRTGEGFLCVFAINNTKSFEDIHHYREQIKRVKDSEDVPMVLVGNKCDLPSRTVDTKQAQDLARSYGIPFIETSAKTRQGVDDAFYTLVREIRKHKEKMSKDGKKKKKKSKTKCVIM
KRAS G12S, sequence (P62937 whole entry): as the sequence (P62937 whole entry) above
How it was run: as §2

[5] = biological target: KRAS G12V (Homo sapiens (Human), UniProt P01116+P62937, G12V); test: as above; assay type: biochemical; details: read-out: KRAS G12V FRET IC50
KRAS G12V, sequence (P01116 other isoform, or with tags, fused parts or gaps G12V): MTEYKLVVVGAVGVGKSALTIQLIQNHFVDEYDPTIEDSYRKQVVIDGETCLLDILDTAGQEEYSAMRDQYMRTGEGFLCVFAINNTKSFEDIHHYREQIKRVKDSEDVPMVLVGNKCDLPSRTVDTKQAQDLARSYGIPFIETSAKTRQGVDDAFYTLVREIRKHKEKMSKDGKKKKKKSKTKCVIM
KRAS G12V, sequence (P62937 whole entry): as the sequence (P62937 whole entry) above
How it was run: as §2

[6] = biological target: KRAS G13C (Homo sapiens (Human), UniProt P01116+P62937, G13C); test: as above; assay type: biochemical; details: read-out: KRAS G13C FRET IC50
KRAS G13C, sequence (P01116 other isoform, or with tags, fused parts or gaps G13C): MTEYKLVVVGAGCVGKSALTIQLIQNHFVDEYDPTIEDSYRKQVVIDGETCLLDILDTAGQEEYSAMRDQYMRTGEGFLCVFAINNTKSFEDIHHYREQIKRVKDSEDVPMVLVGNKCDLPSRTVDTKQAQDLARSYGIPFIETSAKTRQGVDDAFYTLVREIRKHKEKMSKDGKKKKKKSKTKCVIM
KRAS G13C, sequence (P62937 whole entry): as the sequence (P62937 whole entry) above
How it was run: as §2

[7] = biological target: KRAS G13D (Homo sapiens (Human), UniProt P01116+P62937, G13D); test: as above; assay type: biochemical; details: read-out: KRAS G13D FRET data IC50
KRAS G13D, sequence (P01116 other isoform, or with tags, fused parts or gaps G13D): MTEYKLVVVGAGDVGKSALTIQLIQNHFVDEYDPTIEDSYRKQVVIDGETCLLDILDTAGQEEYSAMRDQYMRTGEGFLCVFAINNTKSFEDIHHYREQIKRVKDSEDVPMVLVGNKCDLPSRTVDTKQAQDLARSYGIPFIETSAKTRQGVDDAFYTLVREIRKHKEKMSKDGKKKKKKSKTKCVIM
KRAS G13D, sequence (P62937 whole entry): as the sequence (P62937 whole entry) above
How it was run: as §2

[8] = biological target: KRAS Q61H (Homo sapiens (Human), UniProt P01116+P62937, Q61H); test: as above; assay type: biochemical
KRAS Q61H, sequence (P01116 other isoform, or with tags, fused parts or gaps Q61H): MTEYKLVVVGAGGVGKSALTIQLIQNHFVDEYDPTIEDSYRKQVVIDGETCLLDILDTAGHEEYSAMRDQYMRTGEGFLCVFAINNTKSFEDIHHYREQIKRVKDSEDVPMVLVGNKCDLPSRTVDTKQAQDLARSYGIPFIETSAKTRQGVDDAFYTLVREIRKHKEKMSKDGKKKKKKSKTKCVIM
KRAS Q61H, sequence (P62937 whole entry): as the sequence (P62937 whole entry) above
How it was run: as §2

[9] = biological target: KRAS WT (Homo sapiens (Human), UniProt P01116+P62937); test: as above; assay type: biochemical; details: read-out: KRAS WT FRET data IC50
KRAS WT, sequence (P01116 other isoform, or with tags, fused parts or gaps): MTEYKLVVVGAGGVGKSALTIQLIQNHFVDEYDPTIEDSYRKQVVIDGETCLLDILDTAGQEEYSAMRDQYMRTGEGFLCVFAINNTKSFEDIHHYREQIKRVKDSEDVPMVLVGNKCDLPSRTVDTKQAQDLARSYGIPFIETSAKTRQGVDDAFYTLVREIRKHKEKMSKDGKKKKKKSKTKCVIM
KRAS WT, sequence (P62937 whole entry): as the sequence (P62937 whole entry) above
How it was run: as §2

[10] = biological target: NRAS G12C (Homo sapiens (Human), UniProt P01111+P62937, G12C); test: as above; assay type: biochemical; details: read-out: NRAS G12C FRET data IC50
NRAS G12C, sequence (P01111 whole entry G12C): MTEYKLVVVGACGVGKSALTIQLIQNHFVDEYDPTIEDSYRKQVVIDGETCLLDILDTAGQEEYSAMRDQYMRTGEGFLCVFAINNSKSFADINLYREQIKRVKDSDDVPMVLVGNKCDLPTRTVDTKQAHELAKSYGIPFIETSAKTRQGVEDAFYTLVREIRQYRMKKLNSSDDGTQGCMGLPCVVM
NRAS G12C, sequence (P62937 whole entry): as the sequence (P62937 whole entry) above
How it was run: (§3)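 TR-FRET read after 1.5 h with 10 nM anti-His Eu-W1024 and 50 nM anti-GST APC, following 3 h at 25 °C of GMPPNP-loaded His6-Ras (12.5 nM), GST-BRAF RBD (50 nM) and Cyclophilin A (25 μM) with compound from 30 μM final, 10 points, 3-fold. IC50 reported; pH 7.3 HEPES, 100 mM NaCl.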

[11] = biological target: NRAS WT (Homo sapiens (Human), UniProt P01111+P62937); test: as above; assay type: biochemical
NRAS WT, sequence (P01111 whole entry): as the sequence (P01111 whole entry G12C) above, with C12G counted along it
NRAS WT, sequence (P62937 whole entry): as the sequence (P62937 whole entry) above
How it was run: as §3

[12] = tested on: NCI-H358 cells (K-Ras G12C); test: CellTiter-Glo cell viability, NCI-H358; assay type: cell-based, human; details: Homo sapiens, NCI-H358, 120 h, K-Ras G12C, 5-day treatment; read-out: H358 Cell Viability IC50
How it was run: as §1

[13] = tested on: K-Ras G12C (NCI-H358 cells); test: Potency assay: pERK in NCI-H358 cells; assay type: cell-based, human; details: Homo sapiens; NCI-H358 cells, 4 hours; read-out: pERK EC50 (H358 KRAS G12C)
How it was run: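 Cells plated the day before were exposed for 4 h at 37° C, 5% CO2 to a 10-point, 3-fold DMSO dilution series (10 mM top stock), in duplicate. Phospho-ERK was read by AlphaLISA SureFire Ultra or by In-Cell Western with DRAQ5 DNA stain, and IC50 came from a 4-parameter sigmoidal fit.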

[14] = tested on: NCI-H358 (K-Ras G12C); test: CellTiter-Glo cell viability assay, NCI-H358; assay type: cell-based, human; details: Homo sapiens, NCI-H358, 120 h, 5-day treatment; read-out: H358 Cell Viability assay data (K-Ras G12C, IC50)
How it was run: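 Viability read-out was luminescent (CellTiter-Glo) on day 5 of compound exposure in K-Ras G12C NCI-H358 cells. Values were expressed as percent of mean DMSO signal and fitted with a four-parameter logistic curve.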

[15] = biological target: K-Ras G12C(GMP-PNP) binding to BRAF RBD (Homo sapiens (Human), UniProt P01116+P62937, G12C); test: Disruption of BRAF RBD interaction with K-Ras (FRET / MOA assay), K-Ras G12C; assay type: biochemical; details: read-out: KRAS G12C FRET IC50
K-Ras G12C(GMP-PNP) binding to BRAF RBD, sequence (P01116 other isoform, or with tags, fused parts or gaps G12C): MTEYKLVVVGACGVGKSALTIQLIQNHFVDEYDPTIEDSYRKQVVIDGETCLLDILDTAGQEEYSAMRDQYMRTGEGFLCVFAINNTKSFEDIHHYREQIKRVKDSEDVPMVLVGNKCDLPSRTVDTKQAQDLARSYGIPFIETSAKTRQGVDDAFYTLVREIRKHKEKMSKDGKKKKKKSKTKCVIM
K-Ras G12C(GMP-PNP) binding to BRAF RBD, sequence (P62937 whole entry, canonical isoform): as the sequence (P62937 whole entry) above
How it was run: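 Incubation of compound (up to 30 μM final, 3-fold steps) with GMP-PNP-type loaded Ras isoform, cyclophilin A and BRAF RBD ran 3 h at 25° C, followed by 1.5 h with detection antibodies. Disruption appears as a reduced TR-FRET ratio compared with DMSO controls, expressed as IC50.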

SMILES	pIC50 [1]	pIC50 [2]	pIC50 [3]	pIC50 [4]	pIC50 [5]	pIC50 [6]	pIC50 [7]	pIC50 [8]	pIC50 [9]	pIC50 [10]	pIC50 [11]	pIC50 [12]	pEC50 [13]	pIC50 [14]	pIC50 [15]
CCn1c(-c2cccnc2[C@H](C)OC)c2c3cc(ccc31)-c1csc(n1)C[C@H](NC(=O)[C@H](C(C)C)N(C)C(=O)N1CC([C@@H](C)OC)C1)C(=O)N1CCC[C@H](N1)C(=O)OCC(C)(C)C2 [Compound A278]	7.00 to 8.00	7.00 to 8.00	6.00 to 7.00	6.00 to 7.00	7.00 to 8.00	6.00 to 7.00	6.00 to 7.00	7.00 to 8.00	7.00 to 8.00	7.00 to 8.00	–	–	–	–	–
CCn1c(-c2cccnc2[C@H](C)OC)c2c3cc(ccc31)-c1csc(n1)C[C@H](NC(=O)[C@H](C(C)C)N(C)C(=O)N1CC[C@@H]1C)C(=O)N1CCC[C@H](N1)C(=O)OCC(C)(C)C2 [Compound A304]	7.00 to 8.00	7.00 to 8.00	6.00 to 7.00	6.00 to 7.00	6.00 to 7.00	6.00 to 7.00	6.00 to 7.00	7.00 to 8.00	6.00 to 7.00	7.00 to 8.00	7.00 to 8.00	–	–	–	–
CCn1c(-c2cccnc2[C@H](C)OC)c2c3cc(ccc31)-c1csc(n1)C[C@H](NC(=O)[C@H](C(C)C)N(C)C(=O)N1CCC1)C(=O)N1CCC[C@H](N1)C(=O)OCC(C)(C)C2 [Compound A399]	7.00 to 8.00	7.00 to 8.00	6.00 to 7.00	6.00 to 7.00	7.00 to 8.00	6.00 to 7.00	6.00 to 7.00	7.00 to 8.00	6.00 to 7.00	7.00 to 8.00	7.00 to 8.00	–	–	–	–
CCn1c(-c2cccnc2[C@H](C)OC)c2c3cc(ccc31)-c1cc(O)cc(c1)C[C@H](NC(=O)[C@H](C(C)C)N(C)C(=O)[C@@H]1OCC[C@@H]1c1ccccc1)C(=O)N1CCC[C@H](N1)C(=O)OCC(C)(C)C2 [Compound A415]	7.00 to 8.00	7.00 to 8.00	7.00 to 8.00	7.00 to 8.00	7.00 to 8.00	7.00 to 8.00	7.00 to 8.00	–	7.00 to 8.00	7.00 to 8.00	7.00 to 8.00	7.00 to 8.00	> 5.30	–	–
CCn1c(-c2cccnc2[C@H](C)OC)c2c3cc(ccc31)-c1cc(O)cc(c1)C[C@H](NC(=O)[C@H](C(C)C)N(C)C(=O)[C@H]1OCC[C@H]1N)C(=O)N1CCC[C@H](N1)C(=O)OCC(C)(C)C2 [Compound A420]	6.00 to 7.00	7.00 to 8.00	6.00 to 7.00	6.00 to 7.00	6.00 to 7.00	7.00 to 8.00	6.00 to 7.00	–	6.00 to 7.00	6.00 to 7.00	–	6.00 to 7.00	–	7.00 to 8.00	6.00 to 7.00
CCn1c(-c2cc(N3CCN(C)CC3)cnc2[C@H](C)OC)c2c3cc(ccc31)-c1csc(n1)C[C@H](NC(=O)[C@H](C(C)C)N(C)C(=O)[C@@H]1OCC[C@@H]1c1ccncc1)C(=O)N1CCC[C@H](N1)C(=O)OCC(C)(C)C2 [Compound A450]	–	7.00 to 8.00	6.00 to 7.00	6.00 to 7.00	6.00 to 7.00	6.00 to 7.00	6.00 to 7.00	7.00 to 8.00	6.00 to 7.00	7.00 to 8.00	7.00 to 8.00	–	–	–	–
